For experiment [1], the system named is Alternaria solani. As to the kind of experiment: MIC determination by serial dilution in microtitre plates. In kind it is cell-based. The note with it: lowest concentration without mycelial growth, V8 juice nutrient solution, 20°C, 6-8 days, visual inspection. On the procedure:
(§1) Determination of MIC-Values of compounds against various phytopathogenic fungi
(§2) The MIC (Minimum Inhibition Concentration)-values were determined by serial dilution tests using 48-well microtitre plates. The dilution of the test compounds in the nutrient solution and the distribution to the wells were carried out by a TECAN RSP 5000 robotic sample processor.
(§3) For preparation of the nutrient solution, V8 juice (Trade Mark) was neutralised with calcium carbonate and centrifuged. The supernatant was diluted with distilled water (1:5) to the final concentration.
(§4) The fungi (Alternaria solani, Botrytis cinerea, Septoria nodorum) were added into the wells as a droplet of spore suspension. The microtitre plates were then incubated at 20°C for 6-8 days. The MIC-value was determined by visual inspection of the plates. In the case of Alternaria solani and Botrytis cinerea, the lowest concentration in the dilution series without mycelial growth was defined to be the MIC-value. For Septoria nodorum, no MIC-value but only a strong inhibition of growth was regularly observed.

The test system of experiment [2] is Botrytis cinerea. Described as above. It counts as cell-based. The note with it: lowest concentration without mycelial growth, V8 juice nutrient solution, 20°C, 6-8 days, visual inspection. The procedure:
as §1, §2, §3, §4

For experiment [3], the system named is Venturia inaequalis. The experiment can be described thus: Fungicidal activity against Venturia inaequalis on Malus sp. (apple cuttings, protectant spray). It counts as in vivo. The arrangement: key: 0 = no infection; 1 = 1-10% infection; 2 = 11-40% infection; 3 = 41-100% infection. The note with it: extent of infection score; apple cuttings variety Morgenduft; test compound 400 ppm; infected after 24 hours; assessed after about 14 days. On the procedure: Fungicidal activity against Venturia inaequalis on Malus sp.
Apple cuttings of the variety Morgenduft, which are about 6 weeks old, were treated with a solution of the test compound (400 ppm) in water/acetone/Triton X or water/methanol/Triton X. After 24 hours, the plants were infected with a conidia suspension of Venturia inaequalis (about 50,000 conidia/ml), incubated in a dark climatic chamber at a relative humidity of 100% for 48 hours and then kept at a relative humidity of 95-99% and temperature of 18-20°C during the day and 13°C during the night for about 14 days. The extent of infection was assessed according to the following scheme:- • 0 = no infection • 1 = 1-10% infection • 2 = 11-40% infection • 3 = 41-100% infection The results of these tests are set out in Table II below:-

Experiment [4] deals with Alternaria solani. As to the kind of experiment: Activity against tomato early blight (AS), Example 120. It counts as in vivo. The note with it: tomato seedlings, foliar spray as described under (a) (1000 ppm), contact prophylactic; disease control rating.
For experiment [5], the system named is Pseudocercosporella herpotrichoides. The experiment can be described thus: Activity against wheat eyespot in-vitro (PHI), Example 120. Particulars: 50 ppm compound, 2.5% acetone, 20°C, 12 days, mycelial growth, rating. In kind it is cell-based.
The subject of experiment [6] is Leptosphaeria nodorum. As to the kind of experiment: Activity against wheat leafspot (LN), Example 120. The note with it: wheat plants, foliar spray 1000 ppm, direct therapeutic; disease control rating. In kind it is in vivo.
For experiment [7], the system named is Botrytis cinerea. The experiment can be described thus: Direct protectant activity against broad bean grey mould (BCB), Example 120. It counts as in vivo. The note with it: broad bean plants, foliar spray 1000 ppm, disease control rating.
In experiment [8] the test system is Rhizoctonia solani. As to the kind of experiment: Activity against Rhizoctonia in-vitro (RSI), Example 120. It counts as cell-based. The note with it: 50 ppm compound, 2.5% acetone, 20°C, 10 days, mycelial growth, rating.
Experiment [9] relates to Erysiphe graminis f.sp. hordei. The experiment can be described thus: Activity against barley powdery mildew (EG), Example 120. Particulars: barley seedlings, foliar spray 1000 ppm, direct therapeutic; disease control rating. It counts as in vivo.
Experiment [10] deals with Pyricularia oryzae. In kind it is in vivo. The note with it: rice seedlings, foliar spray 1000 ppm, direct therapeutic; disease control rating.

Values after ≈ are worked out from the molar mass of the structure shown.

`Cc1ccc(-c2c(Cl)nc3ncnn3c2NC2CCCC2)cc1` [Example 1, 5-chloro-6-(4-methylphenyl)-7-cyclo-pentylamino-1,2,4-triazolo[1,5-a]pyrimidine]: the MIC (in general, the least concentration at which growth counts as inhibited) was 1.56 µg/mL (≈ 4.76 µM) in experiment [1] and 12.5 µg/mL (≈ 38.1 µM) in experiment [2]. Further, in [3], the Activity was 1 (1 = 1-10% infection).

For `Brc1nc2ncnn2c(NC2CCCC2)c1-c1ccccc1` [Example 2, 5-bromo-6-phenyl-7-cyclopentylamino-1,2,4-triazolo[1,5-a]pyrimidine], in [3], the Activity turned out to be 0.

In turn, `COc1ccc(-c2cnc3ncnn3c2NC2CCCC2)cc1` [Example 3, 6-(4-methoxyphenyl)-7-cyclopentylamino-1,2,4-triazolo[1,5-a]pyrimidine] displayed an Activity in [3] of 2.5.

`CNc1nc2ncnn2c(NC2CCCC2)c1-c1ccccc1` [Example 4, 5-methylamino-6-phenyl-7-cyclopentylamino-1,2,4-triazolo[1,5-a]pyrimidine] yielded an Activity in [3] of 2.3.

`Clc1ccccc1-c1c(I)nc2ncnn2c1NC1CCCC1` [Example 6, 5-iodo-6-(2-chlorophenyl)-7-cyclopentylamino-1,2,4-triazolo[1,5-a]pyrimidine]: the MIC came to 3.13 µg/mL (≈ 7.12 µM) in experiment [1] and 6.25 µg/mL (≈ 14.2 µM) in [2].

For the molecule `CC(C)Nc1c(-c2ccccc2F)c(Cl)nc2ncnn12` [Example 41], the results for the MIC in [1] and in [2] were 12.5 µg/mL (≈ 40.9 µM) and 25 µg/mL (≈ 81.8 µM), respectively. Moreover, the “Fungicidal Activity AS” value in experiment [4] was 2 (2 = greater than 80% disease control). The Activity in [3] is on record as 0. In addition, the “Fungicidal Activity PHI” value in experiment [5] is 1 (1 = about 50-80% disease control). In addition, the “Fungicidal Activity LN” value in experiment [6] is recorded as 2 (2 = greater than 80% disease control). In addition, in experiment [7], the “Fungicidal Activity BCB” value is reported as 2 (2 = greater than 80% disease control). The “Fungicidal Activity RSI” value in experiment [8] is reported as 2 (2 = greater than 80% disease control). Also, the “Fungicidal Activity EG” value in [9] is 2 (2 = greater than 80% disease control). In experiment [10], the “Fungicidal Activity PO” value is reported as 2 (2 = greater than 80% disease control).

The values above are taken from EP0782997A2, “Triazolopyrimidine derivatives” (SHELL INTERNATIONALE RESEARCH MAATSCHAPPIJ B.V., priority 1991, dated 1993).
